From publication PMC3855985, “Simultaneous Determination of Volatile Constituents from Acorus tatarinowii Schott in Rat Plasma by Gas Chromatography-Mass Spectrometry with Selective Ion Monitoring and Application in Pharmacokinetic Study” (Journal of Analytical Methods in Chemistry, 2013) come the findings set out here.

The term AUC(0-inf) denotes the area under the concentration-time curve extrapolated to infinity. Higher therefore signals more exposure. Usually AUC(0-t) stands for the area under the concentration-time curve up to a stated or last time point. Usually Cmax stands for the maximum level reached in the sampled fluid or tissue. What is called Tmax is the time from dosing to the highest level. Broadly, the half-life is the time in which the quantity being followed falls by half.

The nature of this series: Pharmacokinetic study in rats after single oral dose of volatile oil of Acorus tatarinowii Schott (GC-MS/SIM of plasma). Conditions: for CL / Vd / AUC(0~t) / AUC(0~∞) / C max / T1/2 α / T 1/2β / T max: rats (n = 6); for CL / Vd / Compartment model of the plasma profile / AUC(0~t) / AUC(0~∞) / C max / T1/2 α / T 1/2β / T max: single oral dose 0.2 g/kg volatile oil of Acorus tatarinowii Schott; for Compartment model of the plasma profile: rats. The protocol: GC-MS analyses were performed with a Shimadzu GC-MS QP2010 (Kyoto, Japan). Chromatographic separation was achieved on a Restek Rxi-5MS capillary column (30 m × 0.32 mm I.D., 0.25 μm film thickness, Shimadzu, Japan) using nitrogen as carrier gas at 2 mL/min in a constant flow rate mode. […] The temperatures of injector, interface, and ion source were 250, 280, and 230°C, respectively. Detection was operated by selected ionmonitoring (SIM) mode (70 eV, electron impact mode).
In the SIM mode, the peaks of α-asarone, β-asarone, methyl eugenol, and IS in plasma were identified by matching the retention time and the abundant ions of m/z 178 for methyl eugenol, m/z 208 for α-asarone, β-asarone, and m/z 144 for IS. The injection volume was 1.0 μL. Data were collected using the GC-MS solution (Kyoto, Japan).
Six healthy male Sprague-Dawley rats, weighing 250–280 g, were supplied by the Guangdong Laboratory Animals Monitoring Institute (Guangdong, China). The rats were housed in a standard animal holding room with normal access to food and water and 12 h light cycle. The animals were fasted overnight prior to dosing, with water allowance ad libitum. All animal experiments were carried out according to the Guidelines for the Care and Use of Laboratory Animals and were approved by the Animal Experimentation Ethics Committee.
In a 1.5 mL Eppendorf tube, 100 μL of plasma was spiked with 10 μL of 2.0 μg/mL IS solution. An aliquot of 40 μL 10% (V : V) trichloracetic acid water solution and 600 μL acetonitrile was used to remove the proteins in the plasma through vortexed for 2 min followed by the centrifugation of 10 min at 8000 rpm. The supernatant was collected in a clean tube for next use, while the residue was extracted by 300 μL acetic ether for three times. The acetic ether layer and the above supernatant were collected together and evaporated to dryness under a stream of nitrogen. The residue was dissolved in 100 μL of acetone for further GC-MS analysis.
Volatile oil of Acorus tatarinowii Schott was administered orally to the rat in a single dose of 0.2 g/kg. Blood samples were collected in heparinized tube at 0, 5, 10, 20, 30, 60, 90, 120, 180, 300, 480, 720, 960, and 1200 min after dose. All the samples were extracted and analyzed under the proposed condition.
The Microsoft Excel Program Drug and Statistics 2.0 (T.C.M. Shanghai, China) was employed to process and calculate the pharmacokinetic parameters. The parameters of the area under curve (AUC), the maximum plasma concentration (C max) and the corresponding time (t max), the half-life of absorption (t 1/2), and so forth were used to decrypt the pharmacokinetic properties of α-asarone, β-asarone, and methyl eugenol. Statistical analysis of the biological data was performed by the Student's t-test. All results were expressed as arithmetic mean ± standard deviation (SD).

The mark [1] stands for this setting: male, Sprague-Dawley, rat, plasma, po, 0.2 g/kg.

For `C=CCc1ccc(OC)c(OC)c1` [Methyl Eugenol, Methyl eugenol], the “Compartment model of the plasma profile” value is listed as “one-compartment open models”. Moreover, under setting [1], the AUC(0-inf) is 41.5 ng·h/mL, the AUC(0-t) is 35.5 ng·h/mL, the concentration peaked (Cmax) at 21 ± 1 ng/mL and the Tmax is 10 min. The half-life under setting [1] worked out at 67.7 ± 3.32 min. Where the note is “plasma”, this molecule gave a CL of 0.40 ± 0.04 mL/min/kg and a Vd of 39.35 ± 4.08 L/kg.

As for `C/C=C/c1cc(OC)c(OC)cc1OC` [α-Asarone], the “Compartment model of the plasma profile” value is recorded as “two-compartment open model”. For the setting “plasma”, the “AUC(0~t)” value turned out to be 47.51 ± 28.49 mg·min/L, the “AUC(0~∞)” value was determined as 56.67 ± 35.91 mg·min/L, the C max is 530 ± 240 ng/mL and the CL was found to be 0.60 ± 0.44 mL/min/kg. Further, where the note is “plasma”, the “T1/2 α” value was found to be 58.92 ± 20.80 min, the “T 1/2β” value was 69.28 ± 6.12 min, the T max is recorded as 11.25 ± 6.29 min and the Vd is on record as 22.93 ± 16.11 L/kg.

For `C/C=C\c1cc(OC)c(OC)cc1OC` [β-Asarone, β-asarone], the “Compartment model of the plasma profile” value is “two-compartment open model”. Where the note is “plasma”, the “AUC(0~t)” value came to 368.43 ± 40.05 mg·min/L, the “AUC(0~∞)” value turned out to be 407.52 ± 55.78 mg·min/L, the C max stood at 2470 ± 580 ng/mL and the CL is recorded as 0.38 ± 0.05 mL/min/kg. Further, under “plasma”, the “T1/2 α” value was 54.39 ± 29.46 min, the “T 1/2β” value was 69.30 ± 0.21 min, the T max was determined as 13.75 ± 11.09 min and the Vd was determined as 149.87 ± 90.78 L/kg.
